From PMC9606955, “In Vitro Activity of Essential Oils Distilled from Colombian Plants against Candida auris and Other Candida Species with Different Antifungal Susceptibility Profiles” (Molecules, 2022)
Values after ≈ are worked out from the molar mass of the structure shown.

Tests used:
C. auris = test: MIC, CLSI M27 broth microdilution, several C. auris strains together; format: cell-based, Candida auris; conditions: C. auris Ca 41, Ca 45 and Ca 46 together
From the text: The fungal strains used in this study were C. albicans ATCC 10231, C. albicans ATCC 64550, C. parapsilosis ATCC 22019, C. tropicalis ATCC 750, C. tropicalis ATCC 200956 (resistant to azoles and AMB), C. glabrata LMDM 34 (resistant to echinocandins), C. metapsilosis MUM 15.12, C. orthopsilosis MUM 17.13, C. lusitaniae MUM 17.08, C. krusei ATCC 6258 (Issatchenkia orientalis ATCC 6258), and C. auris CDC B11903. Additionally, nine clinical isolates were included: C. parapsilosis Synlab 406 (FLC-resistant) and eight C. auris isolates identified by MALDI-TOF MS (Bruker Daltonics, Bremen, Germany) according to Zhao et al.. These yeasts were cultured on Sabouraud Dextrose Agar (SDA; Sigma-Aldrich, St. Louis, MO, USA) for 24 h at 35 °C.
Antifungal susceptibility testing was performed according to Clinical and Laboratory Standards Institute M27, 4th Edition (CLSI standard M27, 4th Edition). […] MICs were visually determined at the lowest concentration that produced visual inhibition compared to the growth control. […] The results were expressed as geometric means (GM) and ranges. As an antifungal susceptibility testing control, the activity of ITC and AMB against the reference strains C. krusei ATCC 6258 and C. parapsilosis ATCC 22019 was evaluated in all experiments following the CLSI standard M27, 4th Edition. […]

[1] = tested on: C. albicans ATCC 10231, C. tropicalis ATCC 200956, and C. auris CDC B11903; test: Time–kill assay, control drugs; format: cell-based, Candida spp.; conditions: fungicidal and fungistatic control drugs
Method: Time–kill assays with the L. origanoides (thymol + p-cymene) chemotype (Code 0018) EO, thymol, FLC, and AMB against C. albicans ATCC 10231, C. tropicalis ATCC 200956, and C. auris CDC B11903 were performed according to the protocol published by Klebser et al. with some modifications. […] Absorbance at λ = 490 nm was measured every 2 h with a Multiskan SkyHigh Microplate Spectrophotometer. AMB and FLC were included as fungicidal and fungistatic control drugs, respectively.

[2] = tested on: C. parapsilosis ATCC 22019; test: MIC, CLSI M27 broth microdilution; format: cell-based, Candida parapsilosis; conditions: antifungal drugs; for MIC: Lodderomyces parapsilosis, ATCC22019, geometric mean
Method in brief: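 Endpoint: visible growth inhibition versus control, read by eye after 24 h incubation at 35 °C. Broth microdilution in RPMI 1640-MOPS, 2.5 × 10^3 CFU/mL inoculum, compounds tested from 0.5 up to 256 µg/mL final. Reported as geometric mean and range.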

Row | MIC Range (C. auris) | SMILES | effect in time–kill assay (control drugs) [1] | MIC [2] | MIC Range [2]
1 | 1 to 2 µg/mL | C[C@@H]1[C@H](O)[C@@H](C)/C=C/C=C/C=C/C=C/C=C/C=C/C=C/[C@H](O[C@@H]2O[C@H](C)[C@@H](O)[C@H](N)[C@@H]2O)C[C@@H]2O[C@](O)(C[C@@H](O)C[C@@H](O)[C@H](O)CC[C@@H](O)C[C@@H](O)CC(=O)O[C@H]1C)C[C@H](O)[C@H]2C(=O)O [AMB, amphotericin B] | fungicidal | 0.06 µg/mL (≈ 0.0649 µM) | 0.06 µg/mL (≈ 0.0649 µM)
2 |  | OC(Cn1cncn1)(Cn1cncn1)c1ccc(F)cc1F [FLC, fluconazole] | fungistatic | 0.7 µg/mL (≈ 2.29 µM) | 0.5 to 1 µg/mL
